The Emax is the greatest response seen or fitted, relative to the assay's reference. By EC50 is commonly meant the midpoint of the concentration-response curve.

Among the data in patent US20260098026A1, “M4 ACTIVATORS/MODULATORS AND USES THEREOF” (Cerevel Therapeutics, LLC, priority 2022, published 2026) are Emax and EC50 values, retold here.

The first assay concerns the target T1, M4 mAChR (Homo sapiens, UniProt P08173).
T1 construct: expressed in transfected cells; host or cells: CHO-K1
T1 sequence (P08173 1-479): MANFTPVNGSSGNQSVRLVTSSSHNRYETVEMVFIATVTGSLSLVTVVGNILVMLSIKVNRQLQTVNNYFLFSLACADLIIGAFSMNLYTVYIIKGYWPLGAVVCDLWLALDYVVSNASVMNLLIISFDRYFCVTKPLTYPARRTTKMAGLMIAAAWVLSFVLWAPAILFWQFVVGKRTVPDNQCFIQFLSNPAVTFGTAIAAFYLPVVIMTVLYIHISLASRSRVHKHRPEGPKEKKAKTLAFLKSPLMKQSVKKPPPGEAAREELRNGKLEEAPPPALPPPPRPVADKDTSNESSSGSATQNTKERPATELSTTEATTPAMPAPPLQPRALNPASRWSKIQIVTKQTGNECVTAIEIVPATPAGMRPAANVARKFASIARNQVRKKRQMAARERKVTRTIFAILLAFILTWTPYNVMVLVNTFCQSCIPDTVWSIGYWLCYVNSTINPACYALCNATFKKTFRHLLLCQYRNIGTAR
Kind of assay: cAMP TR-FRET assay with forskolin, M4-overexpressing CHO-K1 cells. The format is cell-based. As to conditions: cAMP TR-FRET with forskolin. The text has this: The M2 and M4 mACh receptors are Gi-coupled receptors which, upon activation, produce a decrease in cAMP. Assays were developed that measured the potency and efficacy of compounds at the M2 or M4 mAChR using M2- or M4-overexpressing CHO-K1 cell lines. Time-resolved fluorescence resonance energy transfer (TR-FRET) technology was used, where signal occurs as a result of transfer of energy if the donor molecule is in close proximity to an acceptor molecule when the molecules have bound to the molecule of interest. The cAMP detection is a competition binding assay, where cAMP produced by cells competes for binding with the labeled donor molecule to the anti-cAMP acceptor antibody. Due to the low basal levels of cAMP in the CHO-K1 cell line, forskolin was used to increase cAMP levels to enable assessment of agonist activity at the mAChR of interest.
On the technique in general: In TR-FRET formats the signal depends on donor and acceptor labels being close together.
In turn, `CCOC(=O)N1CC2(CC[C@@H](N3CCC(c4cc(F)cnc4-c4cnccn4)CC3)C2)C1` (single isomer, unassigned) [Compound A11] returned an Emax of 80 to 100%.

`CCOC(=O)N1CC2(CC[C@H](N3CCC(c4cc(F)cnc4-c4cnccn4)CC3)C2)C1` (single isomer, unassigned) [Compound A12] came in with an Emax of 80 to 100%.

In the case of `CCOC(=O)N1CC2(CC[C@@H](N3CCC(O)(c4cc(F)cnc4-c4cnccn4)CC3)C2)C1` (single isomer, unassigned) [Compound A14], the maximal response (Emax) was 80 to 100%.

In turn, `CCOC(=O)N1CC2(CC[C@@H](N3CCN(c4cc(F)cnc4C4(F)CCOCC4)CC3)C2)C1` (single isomer, unassigned) [Compound A19] gave a maximum response (Emax) of 80 to 100%. Consider `CCOC(=O)N1CC2(CC[C@H](N3CCC(c4cc(F)cnc4-c4nncs4)CC3)C2)C1` (single isomer, unassigned) [Compound A21], for which the Emax fell in the range of 80 to 100%. The compound `CCOC(=O)N1CC2(CC[C@@H](N3CCC(c4cc(F)cnc4-c4nncs4)CC3)C2)C1` (single isomer, unassigned) [Compound A22] yielded an Emax of 80 to 100%.

In turn, `CCOC(=O)N1CC2(CC[C@@H](N3CCC(c4cc(F)cnc4-n4cc(C)nn4)CC3)C2)C1` (single isomer, unassigned) [Compound A23] came in with an Emax of 80 to 100%. `CCOC(=O)N1CC2(CC[C@H](N3CCC(c4cc(F)cnc4-n4cc(C)nn4)CC3)C2)C1` (single isomer, unassigned) [Compound A24] yielded a maximal response (Emax) of 80 to 100%. Compound `CCOC(=O)N1CC2(CCC(N3CCN(c4cccnc4N4CCC4)CC3)C2)C1` (stereo not drawn) [Compound A4, ethyl 6-(4-(2-(azetidin-1-yl)pyridin-3-yl)piperazin-1-yl)-2-azaspiro[3.4]octane-2-carboxylate] registered an Emax of 80 to 100%. Turning to `CCOC(=O)N1CC2(CC[C@@H](N3CCN(c4cc(F)cnc4-c4cscn4)CC3)C2)C1` [Compound A8, ethyl (6R)-6-[4-(5-fluoro-2-thiazol-4-yl-3-pyridyl)piperazin-1-yl]-2-azaspiro[3.4]octane-2-carboxylate], the Emax is 80 to 100%. Compound `CCOC(=O)N1CC2(CC[C@@H](N3CCN(c4cccnc4-c4cncc(OC(F)F)c4)CC3)C2)C1` [Compound A28] yielded an Emax of 80 to 100%.

The assay is the same for the next values; noted with them: cAMP assay.
Take `CCOC(=O)N1CC2(CC[C@@H](N3CCN(c4cc(F)cnc4C4CCOC4)CC3)C2)C1` (single isomer, unassigned) [Compound A281]: the Emax was in the range of 80 to 100%. The compound `CCOC(=O)N1CC2(CC[C@@H](N3CCN(c4cc(F)cnc4-c4c[nH]c(=O)[nH]c4=O)CC3)C2)C1` [Compound A211] had an Emax of 80 to 100%. As for `CCOC(=O)N1CC2(CC[C@@H](N3CCN(c4cc(Cl)cnc4-c4cscn4)CC3)C2)C1` [Compound A212], the Emax is 80 to 100%. Regarding `CCOC(=O)N1CC2(CC[C@@H](N3CCN(c4cc(F)cnc4-c4ccns4)CC3)C2)C1` [Compound A213], the Emax lay within 80 to 100%. Compound `CCOC(=O)N1CC2(CC[C@@H](N3CCN(c4cc(F)cnc4-c4cnsc4)CC3)C2)C1` [Compound A214] registered an Emax of 80 to 100%. `CCOC(=O)N1CC2(CC[C@@H](N3CCN(c4cc(F)cnc4-c4nncs4)CC3)C2)C1` [Compound A236] had an Emax of 80 to 100%. Compound `CCOC(=O)N1CC2(CC[C@@H](N3CCN(c4cc(F)cnc4-c4nccnc4OC)CC3)C2)C1` [Compound A238] had an Emax of 19 to 49.9%. `CCOC(=O)N1CC2(CC[C@@H](N3CCN(c4cc(Cl)cnc4-c4cnc(C)cn4)CC3)C2)C1` [Compound A239] displayed an Emax of 80 to 100%. `CCOC(=O)N1CC2(CC[C@@H](N3CCN(c4cc(F)cnc4-c4ncc(F)cc4F)CC3)C2)C1` [Compound A240] came in with an Emax of 80 to 100%.

`CCOC(=O)N1CC2(CC[C@@H](N3CCN(c4cc(F)cnc4-c4ccc(C)nn4)CC3)C2)C1` [Compound A241] displayed a maximum response (Emax) of 50 to 79.9%. On to `CCOC(=O)N1CC2(CC[C@@H](N3CCN(c4cc(F)cnc4-c4cccnn4)CC3)C2)C1` [Compound A242], for which the Emax is 80 to 100%.

Take `CCOC(=O)N1CC2(CC[C@@H](N3CCN(c4cc(F)cnc4-n4cnnc4)CC3)C2)C1` [Compound A260]: the Emax is 80 to 100%.

In the case of `CCOC(=O)N1CC2(CC[C@@H](N3CCN(c4cc(F)cnc4OC4(C)CCOCC4)CC3)C2)C1` [Compound A261], the Emax lay in the range of 80 to 100%. With `CCOC(=O)N1CC2(CC[C@@H](N3CCN(c4cc(Cl)cnc4-n4nccn4)CC3)C2)C1` [Compound A262], the Emax was 80 to 100%. Compound `CCOC(=O)N1CC2(CC[C@@H](N3CCN(c4cc(Cl)cnc4Br)CC3)C2)C1` [Compound A263] had an Emax of 80 to 100%. Regarding `CCOC(=O)N1CC2(CC[C@@H](N3CCN(c4cccnc4-c4nncs4)CC3)C2)C1` [Compound A264], the Emax was in the range of 80 to 100%.

Consider `CCOC(=O)N1CC2(CC[C@@H](N3CCN(c4cc(F)cnc4-c4ncc(C)s4)CC3)C2)C1` [Compound A266], for which the Emax was 80 to 100%. For the compound `CCOC(=O)N1CC2(CC[C@@H](N3CCN(c4cc(F)cnc4-c4nc(C)cs4)CC3)C2)C1` [Compound A267], the maximal effect (Emax) was in the range of 50 to 79.9%.

For `CCOC(=O)N1CC2(CC[C@@H](N3CCN(c4cc(Cl)cnc4-c4ncccc4F)CC3)C2)C1` [Compound A268], the Emax was 80 to 100%.

`CCOC(=O)N1CC2(CC[C@@H](N3CCN(c4cc(Cl)cnc4-c4ncccc4Cl)CC3)C2)C1` [Compound A269] had an Emax of 80 to 100%.

For `CCOC(=O)N1CC2(CC[C@@H](N3CCN(c4cc(F)cnc4-c4ccsn4)CC3)C2)C1` [Compound A270], the Emax was 80 to 100%. `CCOC(=O)N1CC2(CC[C@@H](N3CCN(c4cc(Cl)cnc4-c4cnc(C)nc4)CC3)C2)C1` [Compound A271] came in with an Emax of 80 to 100%. `CCOC(=O)N1CC2(CC[C@@H](N3CCN(c4cc(F)cnc4C4CCC(F)(F)CC4)CC3)C2)C1` [Compound A275] registered a maximal effect (Emax) of 80 to 100%. Compound `CCOC(=O)N1CC2(CC[C@@H](N3CCN(c4cc(F)cnc4C4CC5(COC5)C4)CC3)C2)C1` [Compound A277] yielded an Emax of 80 to 100%.

`CCOC(=O)N1CC2(CC[C@@H](N3CCN(c4cccnc4C4CCOCC4)CC3)C2)C1` [Compound A278] returned an Emax of 80 to 100%.

For `CCOC(=O)N1CC2(CC[C@@H](N3CCN(c4cc(F)cnc4-c4nccs4)CC3)C2)C1` [Compound A286], the Emax was in the range of 80 to 100%. As to `CCOC(=O)N1CC2(CC[C@@H](N3CCN(c4cc(F)cnc4-c4ncccc4Cl)CC3)C2)C1` [Compound A287], the Emax was in the range of 80 to 100%.

The next assay deals with T2, M3 muscarinic acetylcholine receptor (mAChR) (Homo sapiens, UniProt P20309).
T2 construct: expressed in transfected cells; host or cells: CHO-K1
T2 sequence (P20309 whole entry): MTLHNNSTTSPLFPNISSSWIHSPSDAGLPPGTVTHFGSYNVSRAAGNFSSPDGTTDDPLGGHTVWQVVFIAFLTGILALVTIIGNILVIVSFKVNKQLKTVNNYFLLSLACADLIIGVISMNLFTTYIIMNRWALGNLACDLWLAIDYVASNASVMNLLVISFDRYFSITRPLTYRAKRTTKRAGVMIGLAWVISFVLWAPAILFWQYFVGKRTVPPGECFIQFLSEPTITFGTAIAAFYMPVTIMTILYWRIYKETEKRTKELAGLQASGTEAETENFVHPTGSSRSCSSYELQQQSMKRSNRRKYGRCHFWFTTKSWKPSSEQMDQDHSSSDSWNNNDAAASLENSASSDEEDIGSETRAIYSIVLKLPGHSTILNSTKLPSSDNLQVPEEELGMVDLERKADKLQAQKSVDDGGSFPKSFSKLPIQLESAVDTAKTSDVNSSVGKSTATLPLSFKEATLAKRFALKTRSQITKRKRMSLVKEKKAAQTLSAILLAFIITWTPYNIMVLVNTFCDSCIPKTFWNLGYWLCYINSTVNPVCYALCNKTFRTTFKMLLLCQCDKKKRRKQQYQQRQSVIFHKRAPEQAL
In words: FLIPR calcium assay (Fluo 8), M3-overexpressing CHO-K1 cells. The format is cell-based. Conditions: FLIPR. The procedure: Stimulation of a Gq-coupled G-protein coupled receptors (GPCRs), result in an efflux of calcium from the endoplasmic reticulum to the cytoplasm (Berridge, 1993), thus rendering this assay appropriate for the assessment of M1, M3 and M5 receptors. CHO-K1 cells overexpressing the M1, M3, or M5 muscarinic acetylcholine receptor (mAChR) were dispensed at 15,000 cells per well in 30 μl volume to 384-well plates and grown overnight at 37° C. in a 5% CO2 atmosphere. Fluo-8 Solution, 10 μl per well, was added to each well and incubated for 30 minutes at 37° C. in a 5% CO2 atmosphere. Compounds diluted in Hanks' balanced salt solution (HBSS) were transferred to the cell assay plate at 10 μl per well, and then read on a FLIPR instrument. EC50 and Emax figures were calculated from the resulting data for each receptor subtype.
Turning to `CCOC(=O)N1CC2(CC(N3[C@@H]4CC[C@H]3CN(c3cc(F)cnc3-c3cnccn3)C4)CS2)C1` (single isomer, unassigned) [Compound A220], the EC50 is more than 10 µM.

As for `CCOC(=O)N1CC2(CCC(N3[C@@H]4CC[C@H]3CN(c3cc(F)cnc3-c3cnccn3)C4)C2)C1` (single isomer, unassigned) [Compound A222], the EC50 is more than 10 µM. Regarding `CCOC(=O)N1CC2(CC[C@@H](N3CCN(c4cc(F)cnc4-c4ccc(=O)n(C(C)C)c4)CC3)C2)C1` [Compound A149], the EC50 was more than 10 µM. On the same count and under the same terms, next, `CCOC(=O)N1CC2(CC[C@@H](N3CCN(c4cc(F)cnc4-c4ccccc4C(=O)NC)CC3)C2)C1` [Compound A151]: more than 10 µM; `CCOC(=O)N1CC2(CC[C@@H](N3CCN(c4cc(F)cnc4-c4ccn(COCC[Si](C)(C)C)n4)CC3)C2)C1` [Compound A196]: more than 10 µM; `CCOC(=O)N1CC2(CCC(N3CCN(c4cc(F)cnc4-c4cnccn4)CC3)CC2)C1` [Compound A224]: more than 10 µM.

Still in this assay, the particulars now being: FLIPR calcium.
For `CCOC(=O)N1CC2(CC[C@H](N3CCN(c4cc(Cl)cnc4C4CCOCC4)CC3)C2)C1` (single isomer, unassigned) [Compound A16], the EC50 is more than 10 µM. Take `CCOC(=O)N1CC2(CC[C@@H](N3CCN(c4cccnc4OC4CCC4)CC3)C2)C1` [Compound A5, (R)-ethyl 6-(4-(2-cyclobutoxypyridin-3-yl)piperazin-1-yl)-2-azaspiro[3.4]octane-2-carboxylate]: the EC50 is more than 10 µM. For the compound `CCOC(=O)N1CC2(CC[C@@H](N3CCN(c4cccnc4-c4cncc(C#N)c4)CC3)C2)C1` [Compound A27], the EC50 was more than 10 µM. For the compound `CCOC(=O)N1CC2(CC[C@@H](N3CCN(c4cc(F)cnc4-c4cccc5cn(C)nc45)CC3)C2)C1` [Compound A66], the EC50 is more than 10 µM.
